Assay results reported in patent US20240189264A1 (priority 2024, published 2024).

- C-reactive protein (CRP) level (in words) (patients taking atenolol single dose): significantly high
SMILES: CC(C)NCC(O)COc1ccc(CC(N)=O)cc1 (centres unmarked) [Atenolol]
- response of hypertensive patients to atenolol (single dose of 100 mg atenolol, oral administration): mostly respond
